Experimental data from PubChem BioAssay AID588612 (The Scripps Research Institute Molecular Screening Center, 2011).

What follows are compounds tested against Mitogen-activated protein kinase 1 (Homo sapiens) (UniProt P28482) (assay: p-MAPK1 abundance shift in treated cells – DLD1 cells, chemiluminescent western blot, powder samples, counter-screen for KLF5 inhibitor project, late-stage follow-up (AID 588612)). Details: DLD-1 cells, p-ERK1/2 western blot, 24 h; at 10 µM.
Sequence of Mitogen-activated protein kinase 1 (Homo sapiens) (P28482 whole entry, looked up): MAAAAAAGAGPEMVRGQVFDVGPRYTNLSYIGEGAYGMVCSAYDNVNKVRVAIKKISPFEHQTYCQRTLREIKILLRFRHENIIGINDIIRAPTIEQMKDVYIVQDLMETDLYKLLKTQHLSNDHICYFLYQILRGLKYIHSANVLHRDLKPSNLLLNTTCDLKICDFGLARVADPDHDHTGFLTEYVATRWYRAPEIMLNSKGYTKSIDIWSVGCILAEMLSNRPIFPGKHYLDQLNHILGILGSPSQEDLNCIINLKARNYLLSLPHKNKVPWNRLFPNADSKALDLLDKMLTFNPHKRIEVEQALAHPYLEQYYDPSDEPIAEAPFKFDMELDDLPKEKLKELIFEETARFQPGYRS
`CN(C(=O)CNC(=O)/C=C/c1cccc(Cl)c1)C1CCS(=O)(=O)C1` (stereo not drawn) was tested, and the fold change was 9.88.
`CN(C(=O)COC(=O)/C=C/c1cccc([N+](=O)[O-])c1)C1CCS(=O)(=O)C1` (stereo not drawn) showed a fold change of 11.
In the case of `CN(C(=O)CNC(=O)/C=C/c1cccc(Cl)c1)C1CCS(=O)(=O)CC1`, the fold change was 9.41.
